These results are taken from US5439899A, “Cosalane and related compounds having activity against aids and aids-related infections” (priority 1993, dated 1995).

Several values for one entry are separate records, joined by “and”; a condition that tells them apart may be missing. Equal values may be shown once. Read-outs that look alike come from different tables or passages of the source.

Data set [1] has as its system T4 lymphocytes (CEM cell line). As to the kind of experiment: NCI in vitro anti-HIV screen, growth inhibition of uninfected CEM cells (XTT). In kind it is cell-based. The settings on record: for IC50: read-out: IC50 (50% inhibitory concentration); for cytotoxicity (statement): NCI anti-HIV screen, CEM cells. Here is the method: (§1) The assay includes the killing of T4 lymphocytes by HIV. Pursuant to the test, small amounts of HIV are added to cells, and a complete cycle of virus reproduction is necessary to obtain the required cell killing. Agents that interact with virions, cells, or virus gene-products to interfere with viral activities will protect cells from cytolysis. The system is thus designed to detect anti-HIV activity. However, compounds that degenerate or are rapidly metabolized in the culture conditions may not show activity in this screen. All tests are compared with at least one positive (e.g., AZT-treated) control done at the same time under identical conditions.
(§2) 1. The candidate agent is dissolved in dimethyl sulfoxide (unless otherwise instructed), then diluted 1:200 in cell culture medium. Further dilutions (half-log10) are prepared before adding to 96-well microtiter plates.
(§3) 2. T4 lymphocytes (CEM cell line) are exposed to HIV at a virus-to-cell ratio of approximately 0.05 and are plated along with non-infected control cells into drug-containing wells or wells with medium alone.
(§4) 3. Cultures are incubated at 37° in a 5% carbon dioxide atmosphere for 6 days.
(§5) 4. The tetrazolium salt, XTT, is added to all wells, and cultures are incubated to allow formazan color development by viable cells.
(§6) 5. […] are analyzed spectrophotometrically to quantitate formazan production and, in addition, are viewed microscopically for detection of viable cells and confirmation of protective activity.
(§7) 6. Drug-treated virus-infected cells are compared with drug-treated non-infected cells and with other appropriate controls (untreated infected and untreated non-infected cells, drug-containing wells without cells, etc.) on the same plate.
(§8) 7. Data are reviewed in comparison with other tests performed at the same time, and a determination about activity is made.
Survival values of this parameter less then 50% are considered acceptable in the current protocol.
(In general: Tetrazolium assays rely on reduction of a dye to a coloured formazan, in cell work by metabolically active cells.)

For a further data set, the system named is HIV. Nature of the data set: NCI in vitro anti-HIV screen (XTT soluble-formazan assay, protection of HIV-infected CEM cells). The class given is cell-based. The settings on record: for EC50: approximate values, one value per run; for anti-HIV effect (statement): NCI anti-HIV screen, in vitro, CEM cells; for TI50 (IC/EC), therapeutic index: ratio IC50/EC50 of the same run.
Description: as §1, with “The National Cancer Institute's procedure for testing for agents active against Human Immunodeficiency Virus (HIV) (Weislow, O. W. et al, "New soluble-formazan assay for HIV-1 cytopathic effects: application to high-flux screening of synthetic and natural products for AIDS-antiviral activity," J. Natl. Cancer Inst., 81, 577-586, 1989) is designed to detect agents acting at any stage of the virus reproductive cycle. The assay” for “The assay”
as §2, §3, §4, §5, §6, §7, §8
Approximate values for 50% effective concentration (EC50) (protection in infected cells), 50% inhibitory concentration (IC50) and the therapeutic index (IC50 /EC50) have been calculated for each test and are provided in the tables of each Example.
Examples 1, 6 and 8 compounds, respectively, against the measured test values expressed as a percentage of the uninfected, untreated control values. The solid line depicts the percentage of surviving HIV-infected cells treated with sample (at the indicated concentration) relative to uninfected, untreated controls. The solid line expresses the in vitro anti-HIV activity of the compound of the tested compound. The dashed line depicts the percentage of surviving uninfected cells treated with the compound of the Example relative to the same uninfected, untreated controls. The dashed line expresses the in vitro growth inhibitory properties of the compound of the Example. The viral cytopathic effect of a compound of each Example is indicated by a combination of dashes and dots. […] Survival values of this parameter less then 50% are considered acceptable in the current protocol.

[2] abbreviates: drug-treated uninfected CEM cells, 6 days, XTT, approximate values, one value per run.
Where [3] appears, read: Human immunodeficiency virus 1, CCRF-CEM, 144 h, read-out: EC50 (50% effective concentration, protection in infected cells), HIV-infected CEM cells, 6 days, XTT.
Where [4] appears, read: Homo sapiens, CCRF-CEM, 144 h, drug-treated uninfected CEM cells, 6 days, XTT, approximate values, one value per run.
[5] abbreviates: HIV-infected CEM cells, 6 days, XTT, read-out: EC50 (50% effective concentration, protection in infected cells).
The mark [6] stands for this setting: Human immunodeficiency virus 1, CCRF-CEM, 144 h, HIV-infected CEM cells, 6 days, XTT, read-out: EC50 (50% effective concentration, protection in infected cells).

For the molecule `CC(CCC=C(c1cc(Cl)c(O)c(C(=O)O)c1)c1cc(Cl)c(O)c(C(=O)O)c1)C1CC[C@H]2[C@@H]3CC[C@H]4CCCC[C@]4(C)[C@H]3CC[C@]12C` (stereo partly shown) [Formula IX], in data set [1] (setting [2]), the IC50 is > 59 µM and > 69 µM and 79 µM.
Regarding `CC(C)CCC[C@@H](C)[C@H]1CC[C@H]2[C@@H]3CC[C@H]4C[C@@H](CCCC(c5cc(Cl)c(O)c(C(=O)O)c5)c5cc(Cl)c(O)c(C(=O)O)c5)CC[C@]4(C)[C@H]3CC[C@]12C` [Formula VI, (5α)-3β-[4,4-Di(3'-ammoniumcarboxy-5'-chloro-4'-hydroxy)phenyl-1-butyl]cholestane], the EC50 in the data set with HIV (setting [3]) was 17 µM. In addition, in the data set with HIV, the “anti-HIV effect (statement)” value was “greatest effect on inhibiting HIV-infected cells, while having a lesser effect on uninfected cells”; the “TI50 (IC/EC), therapeutic index” value was > 1.80 × 10^+1 and > 2.10 × 10^+1 and > 1.30 × 10^+1 and > 1.20 × 10^+1. Besides, in the data set on HIV (read-out: EC50 (50% effective concentration, protection in infected cells), HIV-infected CEM cells, 6 days, XTT), the EC50 was 15 µM and 23 µM and 25 µM. Besides, in data set [1] (Homo sapiens, CCRF-CEM, 144 h), the IC50 is more than 310 µM.
Take `COc1c(Cl)cc(C(=CCC[C@H]2CC[C@@]3(C)[C@@H](CC[C@@H]4[C@@H]3CC[C@]3(C)[C@@H]([C@H](C)CCCC(C)C)CC[C@@H]43)C2)c2cc(Cl)c(OC)c(C(=O)O)c2)cc1C(=O)O` [Formula V]: the “anti-HIV effect (statement)” value in the data set on HIV is on record as “greatest effect on inhibiting HIV-infected cells, while having a lesser effect on uninfected cells”. Also, the IC50 in data set [1] (Homo sapiens, CCRF-CEM, 144 h) was more than 300 µM.
Consider `C[C@H](CCC=C(c1cc(Cl)c(O)c(C(=O)O)c1)c1cc(Cl)c(O)c(C(=O)O)c1)[C@H]1CC[C@H]2[C@@H]3CC[C@@H]4CC(F)(F)CC[C@]4(C)[C@H]3CC[C@]12C` [Formula X, (5β)-3,3-difluoro-17-[5,5-di(3-ammoniumcarboxy-5-chloro-4-hydroxy)phenyl-1-methyl-4-pentenyl]androstane], for which, in the data set with HIV (setting [3]), the EC50 came out at 24 µM. For the same molecule, the “TI50 (IC/EC), therapeutic index” value in the data set with HIV was 1.80 × 10^0. The IC50 in data set [1] (setting [4]) is 41 µM.
For `CCCCCCCCCCCCCCCCCCCCCCCCCCCCCC=C(c1cc(Cl)c(O)c(C(=O)O)c1)c1cc(Cl)c(O)c(C(=O)O)c1` [Formula XI, 1,1-di(3'-ammoniumcarboxy-5'-chloro-4'hydroxy) phenyl-1-untriacontene], the EC50 in the data set on HIV (setting [5]) is 16.3 µM and 11 µM and 9.3 µM; in the data set with HIV (setting [6]), 13.3 µM. Further, in the data set with HIV, the “anti-HIV effect (statement)” value is on record as “greatest effect on inhibiting HIV-infected cells, while having a lesser effect on uninfected cells”. In addition, in the data set with HIV, the “TI50 (IC/EC), therapeutic index” value was > 1.67 × 10^+1 and > 1.36 × 10^+4 and > 1.90 × 10^+1 and > 2.40 × 10^+1. In addition, the IC50 in data set [1] (setting [4]) was more than 222 µM; in data set [1] (setting [2]), more than 220 µM.
As to `CCCCCC=C(c1cc(Br)c(OC)c(C(=O)OC)c1)c1cc(Br)c(OC)c(C(=O)OC)c1` [Formula XII, 1,1-di(5'-bromo-3'-carbomethoxy-4'-methoxy)phenyl-1-heptene], the “anti-HIV effect (statement)” value in the data set on HIV is “greatest effect on inhibiting HIV-infected cells, while having a lesser effect on uninfected cells”; in the data set with HIV (listed as structure XII) it was “most effective compounds studied in terms of prevention of the cytopathic effect of HIV in CEM lymphocytes”. The IC50 in data set [1] (setting [4]) was more than 8.95 µM.
Take `CCCCCCCCCC=C(c1cc(Cl)c(O)c(C(=O)O)c1)c1cc(Cl)c(O)c(C(=O)O)c1` [Formula XIII, 1,1-di(3'-ammoniumcarboxy-5'-chloro-4'-hydroxy)phenyl-1-undecene]: the EC50 with HIV (setting [6]) was 37.3 µM. Also, the “TI50 (IC/EC), therapeutic index” value in the data set with HIV was > 1.32 × 10^0. The IC50 in data set [1] (setting [4]) is more than 49.1 µM.
The matching figures for `CCCCCCCCCCCCCCCC=C(c1cc(Cl)c(O)c(C(=O)O)c1)c1cc(Cl)c(O)c(C(=O)O)c1` [Formula XIV, 1,1-di(3'-ammoniumcarboxy-5'-chloro-4'-hydroxy)phenyl-1-heptadecene]: 4.62 µM, > 7.57 × 10^0 and more than 35 µM.
Take `COC(=O)c1cc(C(=CCCBr)c2cc(Cl)c(OC)c(C(=O)OC)c2)cc(Cl)c1OC` [Formula XIX, 4-bromo-1,1-di(3'-carbomethoxy-5'-chloro4'-methoxy)phenyl-1-butene]: the EC50 in the data set with HIV (setting [5]) was determined as 7.73 µM; in the data set on HIV (setting [6]) it was 8.19 µM. In addition, the “TI50 (IC/EC), therapeutic index” value in the data set with HIV was 2.62 × 10^0 and 1.96 × 10^0. For the same molecule, the IC50 in data set [1] (setting [4]) worked out at 21.5 µM; in data set [1] (setting [2]), 15.2 µM.
In the case of `CCCCCC=C(c1cc(Cl)c(OC)c(C(N)=O)c1)c1cc(Cl)c(OC)c(C(N)=O)c1` [Formula XVI, 1,1-di(3'-carbamoyl-5'-chloro-4'-methoxy)phenyl-1-heptene], the IC50 is 17.4 µM in data set [1] (setting [4]); 17.2 µM and 16.3 µM and 13.4 µM in data set [1] (setting [2]).
Consider `CCCCCCCCCCC(c1ccc(O)c(C(=O)O)c1)c1ccc(O)c(C(=O)O)c1` [Formula XVIII], for which the EC50 in the data set with HIV (setting [6]) was 33.2 µM. Also, the “TI50 (IC/EC), therapeutic index” value in the data set on HIV was 2.55 × 10^0. Besides, the IC50 in data set [1] (setting [4]) came to 84.6 µM.
As to `O=C(O)c1cc(C(=CCCBr)c2cc(Cl)c(O)c(C(=O)O)c2)cc(Cl)c1O` [Formula XVII], the EC50 was 122 µM and 121 µM and 95.1 µM in the data set on HIV (setting [5]); 136 µM in the data set with HIV (setting [6]). The “TI50 (IC/EC), therapeutic index” value in the data set with HIV was 1.58 × 10^0 and 1.93 × 10^0 and 1.50 × 10^0 and 2.71 × 10^0. Also, the IC50 was 214 µM in data set [1] (setting [4]); 237 µM and 181 µM and 258 µM in data set [1] (setting [2]).
As to `CCCCCC=C(c1cc(Br)cc(C(=O)O)c1O)c1cc(Br)cc(C(=O)O)c1O` [Formula XV], the EC50 in the data set on HIV (setting [6]) turned out to be 15.3 µM. Further, in the data set with HIV, the “TI50 (IC/EC), therapeutic index” value is given as > 1.43 × 10^0. For the same molecule, in data set [1] (setting [4]), the IC50 is more than 21.8 µM.
The matching figures for `CCCCCCCCCC=C(c1cc(Br)c(O)c(C(=O)O)c1)c1cc(Br)c(O)c(C(=O)O)c1` [Formula XX, 1,1-di(3'-ammoniumcarboxy-5'-bromo-4'-hydroxy)phenyl-1-undecene]: 55.5 µM, > 3.44 × 10^0 and more than 191 µM.
For the molecule `CCCCCCCCCC=C(c1cc(Br)cc(C(=O)O)c1OC)c1cc(Br)cc(C(=O)O)c1OC` [Formula XXIII, 1,1-[di-(3'-ammoniumcarboxy-5'-bromo-2'methoxy)phenyl]-1-undecene], the IC50 in data set [1] (setting [4]) is 88.9 µM; in data set [1] (setting [2]) it was 79.5 µM and 68.3 µM and 69.8 µM. The “cytotoxicity (statement)” value in data set [1] is on record as “cytotoxic”.
`CCCCCCCCCCCCCCCC=C(c1cc(Cl)c(OC)c(C(=O)O)c1)c1cc(Cl)c(OC)c(C(=O)O)c1` [Formula XXIV, 1,1-di(3'-carboxy-5'-chloro-4'-methoxy)phenyl-1-heptadecene]: the IC50 worked out at 26.6 µM in data set [1] (setting [4]) and 25.9 µM in data set [1] (setting [2]). Moreover, the “cytotoxicity (statement)” value in data set [1] is given as “cytotoxic”.
In the case of `CCCCCC=C(c1cc(Cl)c(OC)c(C(=O)OC)c1)c1cc(Cl)c(OC)c(C(=O)OC)c1` [Formula XXVI, di(3'-carbomethoxy-5'-chloro-4'-methoxy)phenyl-1-heptene], the IC50 is more than 29.1 µM in data set [1] (setting [4]) and more than 28.2 µM in data set [1] (setting [2]).
Regarding `CCCCCCCCCC=C(c1cc(Cl)c(OC)c(C(=O)O)c1)c1cc(Cl)c(OC)c(C(=O)O)c1` [Formula XXVII, 1,1-di(3'-ammoniumcarboxy-5'-chloro-4'methoxy) phenyl-1-undecene], the IC50 in data set [1] (setting [4]) is 149 µM; in data set [1] (setting [2]), 166 µM and 169 µM.
As for “(5α)-3β-[4,4-di(5'-bromo-4'-methoxy-3'-methoxycarbonyl)phenyl-1-buten-3-yl]cholestane [Formula VII]”, in data set [1] (setting [2]), the IC50 was more than 280 µM.
